Reference: US20250340554A1, “5-Amino-1H-Pyrrolo[3,2-b]Pyridine-2-Carboxamide Derivatives as MTA-Cooperative Inhibitors of PRMT5” (BeOne Medicines I GmbH, priority 2023, published 2025)

What was measured:
HCT116-MTAP-KO = experiment: Compounds cell killing in HCT116 isogenic pair (Cell Titer-Glo viability), MTAP-KO cells; type: cell-based; conditions: Homo sapiens, HCT-116, 144 h, 6 days, 0-10 μM compound, * = more than 50% viability inhibition at tested concentration without a full curve
Description: (§1) HCT116 cell line was obtained from ATCC (CCL-247). It has a mutation in codon 13 of the ras proto-oncogene and can be used as a positive control for PCR assays of mutation in this codon. HCT116-MTAP-KO was knocked-out-MTAP-gene based HCT116, and one single clone was passed for this assay. HCT116-mock-RNA-KO was knocked-out-mock-gene based HCT116 with MTAP wildtype genotype. The base medium for HCT116 isogenic pair is RPMI 1640, HEPES (Gibco, 22400105). To make the complete growth medium, add the following components to the base medium: fetal bovine serum to a final concentration of 10% (Gibco, 10099-141C). The cell line was grown in a humidified 5% CO2 atmosphere at 37° C. and regularly tested for the presence of mycoplasma with MycoAlert™ PLUS Mycoplasma Detection Kit (Lonza, LT07-710).
(§2) • Seed HCT116-mock-RNA-KO (400/well) or HCT116-MTAP-KO (400/well) cells into a 96-well plate (Greiner: 655090), 100 μL/well. • Incubate at 37° C., 5% CO2, overnight. • Add 50 μL fresh growth-medium containing serial dilution of compounds for a final compound concentration of 0-10 μM to each well. • Incubate at 37° C., 5% CO2, 6 days. • The cell viability detected by Cell Titer-Glo (Promega, G7573). Add 70 μL of CellTiter-Glo® reagent in each well. • Incubate at room temperature for 10 minutes to stabilize luminescent signal. • Analyze with Microplate Reader (TECAN, SPARK) and fit IC50 using Prism® 9.

HCT116-mock-RNA-KO = experiment: Compounds cell killing in HCT116 isogenic pair (Cell Titer-Glo viability), mock-RNA-KO cells (MTAP wildtype); type: cell-based; conditions: Homo sapiens, HCT-116, 144 h, 6 days, 0-10 μM compound
Description: as §1, §2

SMILES | IC50 (HCT116-MTAP-KO) | IC50 (HCT116-mock-RNA-KO)
Cc1cc2[nH]c(C(=O)N(Cc3ccc(-c4c(F)cccc4F)cn3)CC3CC3)cc2nc1N [Example B5, 5-amino-N-(cyclopropylmethyl)-N-((5-(2,6-difluorophenyl)pyridin-2-yl)methyl)-6-methyl-1H-pyrrolo[3,2-b]pyridine-2-carboxamide] | 606 nM | 3620 nM
CO[C@H]1C[C@H](N(Cc2ccc(-c3ccccc3)cn2)C(=O)c2cc3nc(N)c(C)cc3[nH]2)C1 [Example B6, 5-amino-N-((1r,3r)-3-methoxycyclobutyl)-6-methyl-N-((5-phenylpyridin-2-yl)methyl)-1H-pyrrolo[3,2-b]pyridine-2-carboxamide] | 1730 nM | > 10000 nM
CO[C@H]1C[C@@H](N(Cc2ccc(-c3ccccc3)cn2)C(=O)c2cc3nc(N)c(C)cc3[nH]2)C1 [Example B7, 5-amino-N-((1s,3s)-3-methoxycyclobutyl)-6-methyl-N-((5-phenylpyridin-2-yl)methyl)-1H-pyrrolo[3,2-b]pyridine-2-carboxamide] | 2050 nM | > 10000 nM
Cc1cc2[nH]c(C(=O)N(Cc3ccc(-c4ccccc4)cn3)C3CCCOC3)cc2nc1N (centres unmarked) [Example B8, 5-amino-6-methyl-N-((5-phenylpyridin-2-yl)methyl)-N-(tetrahydro-2H-pyran-3-yl)-1H-pyrrolo[3,2-b]pyridine-2-carboxamide] | 1350 nM | > 10000 nM
